Reference: patent publication US6004960A, “Pyridazinones as inhibitors of cyclooxygenase-2” (Merck Frosst Canada, Inc., priority 1998, dated 1999)

Key:
COX-1 [1] = biological target: T1, COX-1 (Homo sapiens, UniProt P23219); test: Human whole blood assay, COX-1 (clotting-induced TxB2 production); type: cell-based; design: platelets in whole blood contain a large amount of the COX-1 enzyme; from tissue; host or cells: fresh human whole blood (platelets), allowed to clot; settings: clotting-induced TxB2, 1 hour at 37° C, read-out: COX-1 (IC50 μM) HWB
Protocol: Human whole blood provides a protein and cell-rich milieu appropriate for the study of biochemical efficacy of anti-inflammatory compounds such as selective COX-2 inhibitors. […] This is consistent with the observation that COX-2 inhibitors have no effect on PGE2 production in normal blood. These inhibitors are active only after incubation of human whole blood with LPS, which induces COX-2. This assay can be used to evaluate the inhibitory effect of selective COX-2 inhibitors on PGE2 production. As well, platelets in whole blood contain a large amount of the COX-1 enzyme. Immediately following blood clotting, platelets are activated through a thrombin-mediated mechanism. This reaction results in the production of thromboxane B2 (TxB2) via activation of COX-1. Thus, the effect of test compounds on TxB2 levels following blood clotting can be examined and used as an index for COX-1 activity. Therefore, the degree of selectivity by the test compound can be determined by measuring the levels of PGE2 after LPS induction (COX-2) and […] following blood clotting (COX-1) in the same assay.
B. COX-1 (Clotting-induced TxB2 production)
Fresh blood is collected into vacutainers containing no anticoagulants. […] The tubes are vortexed and incubated at 37° C. for 1 hour to allow blood to clot. At the end of incubation, serum is obtained by centrifugation (12,000×g for 5 min.). A 100 μL aliquot of serum is mixed with 400 μL of methanol for protein precipitation. The supernatant is obtained and is assayed for T×B2 using a enzyme immunoassay kit (Cayman, #519031) according to the manufacturer's instruction.

COX-1 [2] = biological target: T1, COX-1; test: Assay of COX-1 activity from U937 cell microsomes; type: biochemical; design: Assay of COX-1 Activity from U937 cell microsomes; endogenous in cells; host or cells: U937 cells, 100,000×g microsomal pellet; settings: PGE2, read-out: COX-1 (IC50 μM) U-937
Protocol: Assay of COX-1 Activity from U937 cell microsomes
U 937 cells are pelleted by centrifugation at 500×g for 5 min and washed once with phosphate-buffered saline and repelleted. […] The cell suspension is sonicated 4 times for 10 sec and is centrifuged at 10,000×g for 10 min at 4° C. The supernatant is centrifuged at 100,000×g for 1 hr at 4° C. The 100,000×g microsomal pellet is resuspended in 0.1 M Tris-HCl, pH 7.4, 10 mM EDTA to approximately 7 mg protein/ml and stored at -80° C.
Microsomal preparations are thawed immediately prior to use, subjected to a brief sonication, and then diluted to a protein concentration of 125 μg/ml in 0.1 M Tris-HCl buffer, pH 7.4 containing 10 mM EDTA, 0.5 mM phenol, 1 mM reduced glutathione and 1 μM hematin. Assays are performed in duplicate in a final volume of 250 pl. Initially, 5 µl of DMSO vehicle or drug in DMSO are added to 20 μl of 0.1 M Tris-HCl buffer, pH 7.4 containing 10 mM EDTA in wells of a 96-deepwell polypropylene titre plate. 200 μl of the microsomal preparation are then added and pre-incubated for 15 min at room temperature before addition of 25 μl of […] in 0.1 M Tris-HCl and 10 mM EDTA, pH 7.4. Samples are incubated for 40 min at room temperature and the reaction is stopped by the addition of 25 pl of 1 N HCl. Samples are neutralized with 25 μl of 1 N NaOH prior to quantitation of PGE2 content by radioimmunoassay (Dupont-NEN or Amersham assay kits). Cyclooxygenase activity is defined as the difference between PGE2 levels in samples incubated in the presence of arachidonic acid and ethanol vehicle.
(§1) In the assay, inhibition is determined by measuring the amount of prostaglandin E2 (PGE2) synthesized in the presence of arachidonic acid, cyclooxygenase-I or cyclooxygenase-2 and a putative inhibitor.

COX-2 [3] = biological target: T2, COX-2 (Homo sapiens, UniProt P35354); test: Whole cell assay for COX-2 using CHO transfected cell line (CHO [hCOX-2]), PGE2; type: cell-based; design: expressed in transfected cells; host or cells: CHO (Chinese hamster ovary), stably transfected with pCDNAIII vector; CHO [hCOX-2]; settings: CHO [hCOX-2] cells, 10 μM AA
T2 sequence (P35354 18-604): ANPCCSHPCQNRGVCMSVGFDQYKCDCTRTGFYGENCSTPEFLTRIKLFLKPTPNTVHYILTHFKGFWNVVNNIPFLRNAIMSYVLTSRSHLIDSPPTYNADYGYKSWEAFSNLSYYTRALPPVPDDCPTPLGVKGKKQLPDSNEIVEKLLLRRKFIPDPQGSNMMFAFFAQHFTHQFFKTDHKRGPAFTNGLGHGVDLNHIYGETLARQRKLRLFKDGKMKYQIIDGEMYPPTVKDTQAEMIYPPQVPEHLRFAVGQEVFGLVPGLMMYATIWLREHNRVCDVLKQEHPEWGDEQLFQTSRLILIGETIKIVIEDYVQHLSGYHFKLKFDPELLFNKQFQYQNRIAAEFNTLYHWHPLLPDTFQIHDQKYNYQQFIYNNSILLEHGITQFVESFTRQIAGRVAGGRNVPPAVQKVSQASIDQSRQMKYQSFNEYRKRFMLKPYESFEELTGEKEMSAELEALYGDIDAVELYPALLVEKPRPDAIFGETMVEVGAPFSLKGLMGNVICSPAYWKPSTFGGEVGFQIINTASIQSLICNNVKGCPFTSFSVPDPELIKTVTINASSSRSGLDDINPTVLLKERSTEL
Protocol: Chinese hamster ovary (CHO) cell lines which have been stably transfected with an eukaryotic expression vector pCDNAIII containing either the human COX-1 or COX-2 cDNA's are used for the assay. These cell lines are referred to as CHO [hCOX-1] and CHO [hCOX-2], respectively. […] Drugs to be tested are dissolved in DMSO to 66.7-fold the highest test drug concentration. […] Cells (0.3×10^6 cells in 200 p) are preincubated with 3 AIl of the test drug or DMSO vehicle for 15 min at 37° C. […] Cells are then challenged in the presence or absence of drug with the AA/HBSS solution to yield a final concentration of 0.5 μM AA in the CHOhCOX-1] assay and a final concentration of 10 μM AA in the CHO [hCOX-2] assay. […] The samples are centrifuged at 300×g at 4° C. for 10 min, and an aliquot of the clarified supernatant is appropriately diluted for the determination of PGE2 levels using an enzyme-liked immunoassay for PGE2 (Correlate PGE2 enzyme immunoassay kit, Assay Designs, Inc.). Cyclooxygenase activity in the absence of test compounds is determined as the difference in PGE2 levels of cells challenged with arachidonic acid versus the PGE2 levels in cells mock-challenged with ethanol vehicle. Inhibition of PGE2 synthesis by test compounds is calculated as a percentage of the activity in the presence of drug versus the activity in the positive control samples.
as §1

COX-2 [4] = biological target: T2, COX-2; test: Human whole blood assay, COX-2 (LPS-induced PGE2 production); type: cell-based; design: incubation of human whole blood with LPS, which induces COX-2; from tissue; host or cells: fresh human whole blood (volunteers), incubated with LPS; settings: LPS-induced PGE2, 24 hours at 37° C, read-out: COX-2 (IC50 μM) HWB
Source text: As well, platelets in whole blood contain a large amount of the COX-1 enzyme. Immediately following blood clotting, platelets are activated through a thrombin-mediated mechanism. This reaction results in the production of thromboxane B2 (TxB2) via activation of COX-1. Thus, the effect of test compounds on TxB2 levels following blood clotting can be examined and used as an index for COX-1 activity. Therefore, the degree of selectivity by the test compound can be determined by measuring the levels of PGE2 after LPS induction (COX-2) and […] following blood clotting (COX-1) in the same assay.
A. COX-2 (LPS-induced PGE2 production)
Fresh blood is collected in heparinized tubes by venipuncture from both male and female volunteers. The subjects have no apparent inflammatory conditions and have not taken any NSAIDs for at least 7 days prior to blood collection. Plasma is immediately obtained from a 2mL blood aliquot to use as blank (basal levels of PGE2). The remaining blood is incubated with LPS (100 μg/ml final concentration, Sigma Chem, #L-2630 from E. coli; diluted in 0.1% BSA (Phosphate buffered saline) for 5 minutes at room temperature. Five hundred μL aliquots of blood are incubated with either 2μL of vehicle (DMSO) or 2 μL of a test compound at final concentrations varying from 10nM to 30 μM for 24 hours at 37° C. At the end of the incubation, the blood is centrifuged at 12,000×g for 5 minutes to obtain plasma. A 100 μL aliquot of plasma is mixed with 400 μL of methanol for protein precipitation. The supernatant is obtained and is assayed for PGE2 using a radioimmunoassay kit (Amersham, RPA#530) after conversion of PGE2 to its methyl oximate derivative according to the manufacturer's procedure. […]

T1 sequence (P23219 24-599): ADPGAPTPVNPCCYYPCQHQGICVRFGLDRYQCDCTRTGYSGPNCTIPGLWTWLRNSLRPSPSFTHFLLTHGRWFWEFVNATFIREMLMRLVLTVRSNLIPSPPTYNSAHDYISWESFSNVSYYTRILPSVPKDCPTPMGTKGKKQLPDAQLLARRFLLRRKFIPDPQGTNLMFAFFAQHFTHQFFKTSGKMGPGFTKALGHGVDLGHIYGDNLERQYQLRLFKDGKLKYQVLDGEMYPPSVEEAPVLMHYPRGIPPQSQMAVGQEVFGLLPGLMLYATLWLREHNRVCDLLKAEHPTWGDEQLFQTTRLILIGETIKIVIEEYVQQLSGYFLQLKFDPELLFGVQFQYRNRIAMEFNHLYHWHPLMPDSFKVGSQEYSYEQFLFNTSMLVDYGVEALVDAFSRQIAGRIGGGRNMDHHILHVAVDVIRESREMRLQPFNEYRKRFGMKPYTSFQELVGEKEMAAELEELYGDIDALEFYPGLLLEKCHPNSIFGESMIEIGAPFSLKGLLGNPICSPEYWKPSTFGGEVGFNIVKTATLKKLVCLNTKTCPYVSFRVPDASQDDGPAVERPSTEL

IC50 (COX-1 [1]) [µM]	IC50 (COX-1 [2]) [µM]	IC50 (COX-2 [3]) [µM]	IC50 (COX-2 [4]) [µM]	Structure (SMILES)
> 100	–	–	–	CC(C)Oc1c(-c2ccc(S(C)(=O)=O)cc2)cnn(Cc2ccccc2)c1=O [Example 21, 2-Benzyl-4-(2-propoxy)-5-(4-methylsulfonyl)phenyl-2H-pyridazin-3-one]
9	0.3 to 1	–	–	CS(=O)(=O)c1ccc(-c2cnn(Cc3ccccc3)c(=O)c2Oc2ccc(F)cc2)cc1 [Example 22, 2-Benzyl-4-(4-fluorophenoxy)-5-(4-methylsulfonyl)phenyl-2H-pyridazin-3-one]
–	~10	0.029	0.56	CS(=O)(=O)c1ccc(-c2cnn(CC3CCC3)c(=O)c2-c2ccc(F)cc2)cc1 [Example 32, 2-Cyclobutylmethyl-4-(4-fluorophenyl)-5-(4-methylsulfonyl)phenyl-2H-pyridazin-3-one]
